According to article PMC10058583, “Development of Novel Fluorinated Polyphenols as Selective Inhibitors of DYRK1A/B Kinase for Treatment of Neuroinflammatory Diseases including Parkinson’s Disease” (Pharmaceuticals, 2023):
Where two headings read alike, the source gives them in different places.

Tests used:
[1] = Pharmacokinetic studies in C57BL/6 mice (plasma and tissues); assay type: in vivo, mouse; conditions: for AUC(0-t) / Cmax / Tmax / AUC(0-inf) / half-life / bioavailability: both sexes, C57BL/6, mouse; for bioavailability: read-out: F (absolute bioavailability)
Procedure: To overcome the generally poor PK profile of catechins, we developed a proprietary formulation that allows for the delivery of these drugs in high concentrations for oral (PO) or intranasal (IN) use. Our liquid formulation is based on the solubilizer and penetration enhancer (2-hydroxypropyl)-β-cyclodextrin (HP-β-CD), PEG-400, and water. This vehicle allows us to achieve high drug concentration in dosing solution (up to 20% w/w) when needed. PK studies were conducted for 1c in adult male and female C57BL/6 mice (n = 3/sex/time point) using (1) a single IV dose (5 mg/kg), (2) an IN dose (60 mg/kg, 5 µL of a clear solution/nostril/twice), and (3) a single PO dose (100 mg/kg). We analyzed the concentration of the drug in several tissues, including the brain, lungs, liver, and plasma. We observed that this class of molecules is stable in circulation; however, when the tissues are harvested for bioanalytical work, the drug undergoes rapid degradation, probably because of the direct contact with oxygen and metals, which catalyzes its rapid degradation/oxidation. We were able to stabilize the drug in blood by the immediate addition of ascorbic acid and TCEP [29]; however, the same was not possible with solid organs such as the brain and liver, which need to be collected through surgery and homogenized before any stabilizing agent can be added. Therefore, tissue PK data tend to vary.
C57BL/6J mice were given a single dose of drug via the IN or PO route. […] For PO delivery, we replaced water with saline. The volume for IN delivery was 5 µL/nostril, and the volume used for oral delivery was 10 mL/kg. After sacrifice, blood (500 µL) was collected into K2EDTA microtubes and kept on ice all times (must be centrifuged within 30 min of collection). Blood was centrifuged in EDTA vacuum at 4 °C at 15,000× g for 4 min; ~250 µL of plasma was collected into polyethylene tubes containing 50 µL of AA/TCEP stabilizing solution (20 mM ascorbic acid and 13 mM TCEP in 50 mM K2HPO4 buffer; the pH of the solution was adjusted to 6.5 using 2 M NaOH). Then, 200 µL of the collected plasma was mixed with (1) 24 µL of a solution of 10% ascorbic acid and 0.1% EDTA in 40 mM NaH2PO4; (2) 40 µL of 50 mM sodium phosphate (pH 7.4); (3) 500 units of β-D-glucuronidase type X-A from Escherichia coli (Sigma Chemical Co, St Louis, MO, USA), and (4) 4 units of sulfatase type VIII from abalone entrails (Sigma Chemical Co). The mixture was incubated at 37 °C for 45 min. Plasma was then extracted by the addition of 0.5 mL ACN; the mixture was vortex-mixed for 2 min, then snap-frozen with isopropanol/carbon dioxide dry ice, and the upper layer of ACN was removed. The process was repeated another 2 times. The ACN fractions were pooled into a polyethylene tube kept on ice. The combined fractions were evaporated under a gentle stream of nitrogen at ambient temperature. The residue obtained after evaporation was reconstituted in 200 µL of 75 mM citric acid//25 mM ammonium acetate: ACN (75:25 by vol), and vortexed vigorously for 5 min, and 20 µL of the resulting solution was injected into the LC-MS/MS column.
Drug analysis in tissues: About ~0.4 g of the tissue was homogenized with 1 mL of ice-cold 0.4 M sodium phosphate buffer containing 6 mg of ascorbic acid and 0.5 mg of Na2EDTA (final pH of 6.5). After centrifugation at 4 °C at 15,000× g for 4 min, the supernatant was collected into polyethylene tubes containing 50 µL of the AA/TCEP stabilizing solution. Then 1 U of sulfatase and 250 U of β-glucuronidase were added to the abovementioned homogenized mixture. Samples were incubated at 37 °C for 45 min, then extracted, dried, and resuspended in a manner similar to that for plasma. Samples were then analyzed by LC-MS/MS.

[2] = In vitro and in vivo safety studies (not detailed)
[3] = system: MPTP-treated C57BL/6J mice; assay: MPTP model for Parkinson's disease; assay type: in vivo, mouse
Procedure: We tested the behavioral effect of 1c in the MPTP model for PD using both IN and PO delivery (both 25 mg/kg, BID). This is a common neurodegenerative disorder model characterized by a progressive loss of dopaminergic (DA) neurons in the […]. Several studies have shown that oxidative stress, neuroinflammation, and microglial activation play a pivotal role, at least in the progression of PD [35].
MPTP dissolved in saline was administered via intraperitoneal injections once daily at a dosage of 30 mg/kg/day for 5 consecutive days. The control group was administered intraperitoneal injections of saline.
The behavioral tests were performed at initiation as the baseline and 3, 6, and 9 days following the last MPTP injection. Pole test: the test consisted of a gauze-taped pole (45 cm high, 1 cm in diameter) with a small cork ball at the top. Mice were placed with their head facing upwards immediately below the ball. Two times were recorded: the time it took for the mouse to turn completely downward (T-turn) and the time it took to descend to the floor (T-total), with a cutoff limit of 60 sec. The test consisted of two trials separated by 10 min intertrial intervals, and the average time was calculated. Mice were pretrained for 3 days before MPTP injection. The rotarod test was used to assess the motor coordination and balance of animals. On the test day, the mice were habituated for 30 min in the test room before testing. The drum was slowly accelerated to a speed of 4–40 rpm for a maximum of 300 s. The latency to fall off the rotarod within this time period was recorded. The test consisted of three trials separated by 10 min intertrial intervals. The mean latency to fall off the rotarod was recorded and used for analysis. Mice were trained for 3 days before MPTP injection.
Tissue Collection and IHC Analysis: within 2 h following the last dose, the blood of animals was collected via cardiac puncture under isoflurane-induced anesthesia. After blood collection, animals were transcardially perfused with normal saline, followed by buffered formalin fixative. Brains were removed, post-fixed, and embedded in paraffin for subsequent IHC analysis of […] (TH)-positive cells in the substantia nigra (SN).

DYRK1A = DYRK1A (Rattus norvegicus, UniProt Q63470); assay: ATP competition assay on DYRK1A; assay type: biochemical; conditions: ATP up to 0.8 mM
[4] = inhaled or intranasal, IN (60 mg/kg), brain
[5] = inhaled or intranasal, IN (60 mg/kg), plasma
[6] = IN or PO 25 mg/kg BID, no difference between the two routes

- Tlast ([1]; IN (60 mg/kg), brain): 8 h
- Tlast ([1]; IN (60 mg/kg), plasma): 24 h
- Tlast ([1]; PO (100 mg/kg), brain): 24 h
- Tlast ([1]; PO (100 mg/kg), plasma): 24 h
- AUC(0-t) ([1]; PO (100 mg/kg), brain): 2390 ng·h/mL
- Cmax ([1]; PO (100 mg/kg), brain): 110 ng/mL
- Tmax ([1]; PO (100 mg/kg), brain): 2 h
- AUC(0-inf) ([1]; PO (100 mg/kg), plasma): 4280 ng·h/mL
- AUC(0-t) ([1]; PO (100 mg/kg), plasma): 4170 ng·h/mL
- Cmax ([1]; PO (100 mg/kg), plasma): 684 ng/mL
- Tmax ([1]; PO (100 mg/kg), plasma): 1 h
- half-life ([1]; PO (100 mg/kg), plasma): 4.7 h
- AUC(0-t) [1, 4]: 116 ng·h/mL
- Cmax [1, 4]: 18 ng/mL
- Tmax [1, 4]: 0.5 h
- AUC(0-inf) [1, 5]: 16100 ng·h/mL
- AUC(0-t) [1, 5]: 15800 ng·h/mL
- Cmax [1, 5]: 2350 ng/mL
- Tmax [1, 5]: 2 h
- half-life [1, 5]: 4.8 h
- AUC(0-inf) ([1]; plasma, iv, i.v. (5mg/kg)): 1390 ng·h/mL
- AUC(0-t) ([1]; plasma, iv, i.v. (5mg/kg)): 1280 ng·h/mL
- Cmax ([1]; plasma, iv, i.v. (5mg/kg)): 657 ng/mL
- Tmax ([1]; plasma, iv, i.v. (5mg/kg)): 0 h
- half-life ([1]; plasma, iv, i.v. (5mg/kg)): 3.2 h
- bioavailability ([1]; plasma, other: intranasal (IN), 60 mg/kg, IN (60 mg/kg), plasma): 100%
- bioavailability ([1]; plasma, po, 100 mg/kg, PO (100 mg/kg), plasma): ~16%
- Tlast ([1]; i.v. (5mg/kg)): 10 h
- mode of inhibition with varying ATP (DYRK1A): non-ATP-competitive inhibitor
Compound: COc1cc(C(=O)O[C@@H]2Cc3c(O)cc(O)cc3O[C@H]2c2cc(O)c(O)c(O)c2)c(F)c(O)c1O [Compound 1c]
- in vitro and in vivo safety studies, outcome [2]: have not reveled any concerns
- tyrosine-hydroxylase-positive cells in the substantia nigra pars compacta ([3]; IN 25 mg/kg BID): failed to show any histological difference
- movement behavior, pole test [3, 6]: completely restored
- movement behavior, rotarod test [3, 6]: completely restored
- tyrosine-hydroxylase-positive cells in the substantia nigra pars compacta ([3]; PO 25 mg/kg BID): protected from MPTP toxicity
